Test results from patent US7935707B2, “Imidazole derivatives” (Hoffman-La Roche Inc., priority 2007, dated 2011).

Biological target: T1, human chemokine receptor 2 isoform B (Homo sapiens, UniProt P41597)
T1 construct: host or cells: CHOK1-CCR2B-A5 (CHO-K1)
T1 sequence (P41597 1-360 isoform P41597-2): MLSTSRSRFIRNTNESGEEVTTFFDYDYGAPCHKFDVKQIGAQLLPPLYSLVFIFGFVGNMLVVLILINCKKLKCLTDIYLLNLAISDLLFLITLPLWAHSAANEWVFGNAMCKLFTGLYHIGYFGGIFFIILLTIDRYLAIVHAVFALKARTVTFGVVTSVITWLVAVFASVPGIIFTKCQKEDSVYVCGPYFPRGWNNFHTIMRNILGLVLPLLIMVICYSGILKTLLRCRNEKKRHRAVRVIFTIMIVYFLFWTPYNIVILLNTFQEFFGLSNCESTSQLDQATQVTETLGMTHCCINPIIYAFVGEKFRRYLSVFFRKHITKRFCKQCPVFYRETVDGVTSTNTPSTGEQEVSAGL
Test: Calcium mobilization assay
Format: cell-based
Conditions: CHOK1-CCR2B-A5 cells; antagonist activity against 20 nM MCP-1; FLIPR, Fluo-4
Experimental: Calcium Mobilization Assay
CHOK1-CCR2B-A5 cells (from Euroscreen) stably overexpressing the human chemokine receptor 2 isoform B were cultured in Nutrient Hams F12 medium supplemented with 5% FBS, 100 U/ml penicillin, 100 μg/ml streptomycin, 400 μg/ml G418 and 5 μg/ml puromycin. For the assay cells were grown overnight in 384-well black clear flat bottom polystyrene plates (Costar) at 37° C. at 5% CO2. After washing with DMEM, 20 mM Hepes, 2.5 mM probenecid, 0.1% BSA (DMEM assay buffer) cells were loaded with 4 μM Fluo-4 in the same DMEM assay buffer for 2 hours at 30° C. Excess dye was removed and cells were washed with DMEM assay buffer. 384-well compound plates were prepared with DMEM assay buffer/0.5% DMSO with or without various concentrations of test compounds. Usually compounds were tested for agonist and antagonist activity.
Test compounds were added to the assay plate and agonist activity was monitored as fluorescence for 80 seconds with a FLIPR (488 nm excitation; 510-570 nm emission; Molecular Devices). After 20-30 min. of incubation at 30° C., 20 nM MCP-1 (R&D; Roche) was added and fluorescence was monitored again for 80 seconds. Increases in intracellular calcium are reported as maximum fluorescence after agonist exposure minus basal fluorescence before exposure. Antagonist activity is indicated as inhibitor concentration required for 50% inhibition of specific calcium increases.

Row | IC50 [nM] | Structure (SMILES)
1 | 35 | C#Cc1nc(-c2cccc(CCCCCC)c2)n(C)c1C(=O)N1CCC(N2CCCC2)CC1 [Example 13, [5-Ethynyl-2-(3-hexyl-phenyl)-3-methyl-3H-imidazol-4-yl]-(4-pyrrolidin-1-yl-piperidin-1-yl)-methanone]
2 | 130 | CCCCCCc1cccc(-c2nc(I)c(C(=O)N3CCCN(CCO)CC3)n2C)c1 [Example 3, [2-(3-Hexyl-phenyl)-5-iodo-3-methyl-3H-imidazol-4-yl]-[4-(2-hydroxy-ethyl)-[1,4]diazepan-1-yl]-methanone]
3 | 75 | CCCCCCc1cccc(-c2nc(C#N)c(C(=O)N3CCC(N4CCCC4)CC3)n2C)c1 [Example 18, 2-(3-Hexyl-phenyl)-1-methyl-5-(4-pyrrolidin-1-yl-piperidine-1-carbonyl)-1H-imidazole-4-carbonitrile]
4 | 71 | CCc1nc(-c2cccc(OC(F)(F)F)c2)n(C)c1C(=O)N1CCC(N2CCCC2)CC1 [Example 25, [5-Ethyl-3-methyl-2-(3-trifluoromethoxy-phenyl)-3H-imidazol-4-yl]-(4-pyrrolidin-1-yl-piperidin-1-yl)-methanone]

Second part, the molecule before the results:

Row | Structure (SMILES) | IC50 [nM]
5 | Cn1c(-c2cccc(C(F)(F)F)c2)nc(I)c1C(=O)N1CCC(N2CCCC2)CC1 [Example 36, [5-Iodo-3-methyl-2-(3-trifluoromethyl-phenyl)-3H-imidazol-4-yl]-(4-pyrrolidin-1-yl-piperidin-1-yl)-methanone] | 18
6 | Cn1c(-c2cccc(OC(F)(F)F)c2)nc(I)c1C(=O)N1CCC(N2CCC[C@@H]2CO)CC1 [Example 46, [4-((R)-2-Hydroxymethyl-pyrrolidin-1-yl)-piperidin-1-yl]-[5-iodo-3-methyl-2-(3-trifluoromethoxy-phenyl)-3H-imidazol-4-yl]-methanone] | 160
7 | Cn1c(-c2cccc(OC(F)(F)F)c2)nc(-c2cncnc2)c1C(=O)N1CCC(N2CCCC2)CC1 [Example 22, [3-Methyl-5-pyrimidin-5-yl-2-(3-trifluoromethoxy-phenyl)-3H-imidazol-4-yl]-(4-pyrrolidin-1-yl-piperidin-1-yl)-methanone] | 90
8 | CCCCCCc1cccc(-c2nc(I)c(C(=O)N3CCC(N(CC)CC)C3)n2C)c1 (racemic) [Example 1, (rac)-(3-Diethylamino-pyrrolidin-1-yl)-[2-(3-hexyl-phenyl)-5-iodo-3-methyl-3H-imidazol-4-yl]-methanone] | 120
